Patent US10357537B2, “Cyclotides as immunosuppressive agents” (priority 2011, dated 2019)

Key:
[1] = test system: activated human primary PBMC; assay: Anti-proliferative CFSE cell division assay on anti-CD3/CD28-activated PBMC; details: CFSE, flow cytometry; extract 50-100 μg/mL, cyclotides 1.8-14 μM, melittin 0.05-1.6 μM
Description: Human peripheral blood mononuclear cells (PBMC) were isolated from the blood of healthy adult donors obtained from the Blood Transfusion Centre (University Medical Center, Freiburg, Germany). Venous blood was centrifuged on a LymphoPrep™ gradient (density: 1.077 g/cm^3, 20 min, 500×g, 20° C.; Progen, Heidelberg, Germany). Afterwards cells were washed twice with medium and cell viability and concentration was determined using the trypan blue exclusion test. PBMC were cultured in RPMI 1640 medium supplemented with 10% heat-inactivated fetal calf serum (PAA, Coelbe, Germany), 2 mM L-glutamine, 100 U/mL penicillin and […] (all from Invitrogen, Karlsruhe, Germany). The cells were cultured at 37° C. in a humidified incubator with a 5% CO2/95% air atmosphere. All experiments conducted on human material were approved by the Ethics committee of the University of Freiburg.
(§1) After cultivation, the cells were assessed in bioassays as described in the text.
For cell proliferation and cell division tracking analysis PBMC were harvested and washed twice in cold PBS and resuspended in PBS at a concentration of 5×10^6 cells/mL. Cells were incubated for 10 min at 37° C. with carboxyfluorescein diacetate succinimidyl ester (CFSE; 5 μM: Sigma-Aldrich, Taufkirchen, Germany). The staining reaction was stopped by washing twice with complete medium. Afterwards, the cell division progress was analysed using flow cytometric analysis.
The anti-proliferative effect of cyclotide mutants/variants was tested according to Example 5. […] Afterwards the cell proliferation was assessed by analysing cell division using flow cytometric-based histogram analysis.

nematodes = assay: Relative nematocidal activity (other assays, Table 2); format: in vivo; details: some cells print two values separated by a slash
[2] = Relative hemolytic activity (other assays, Table 2); format: cell-based; details: some values given for the Ala mutant
[3] = Relative insecticidal activity (other assays, Table 2); details: in vivo
[4] = test system: activated human primary PBMC; assay: Flow cytometric forward-side-scatter analysis of viability and proliferation; format: cell-based; details: data not shown
Description: After completion of the chemical analysis, different concentrations of the crude O. affinis cyclotide extract were tested for its anti-proliferative capacity on activated human primary PBMC (FIG. 2).

[5] = test system: activated human primary PBMC
Description: as §1
The levels of apoptosis were determined using the annexin V-FITC apoptosis detection kit (eBioscience, Frankfurt, Germany) according to the manufacturer's instructions. After annexin V staining, propidium iodide solution (PI; eBioscience) was added and the cells were incubated in the dark, followed by a flow cytometric analysis to determine the amount of apoptosis and necrosis. CPT (30 μg/mL) and Triton-X 100 (0.5%) was used as positive controls for apoptosis and necrosis, respectively.
Cellular apoptotic and necrotic hallmarks were measured by using inter-nucleosomal DNA fragmentation (subG1^+ cells) assay and phosphatidylserine surface analysis through a single and combinatory annexin V and propidium iodide staining. This double staining process allowed the discrimination between viable (annexin^−/PI^−), apoptotic (annexin^+/PI^− and annexin^+/PI^+) or necrotic (annexin^−/PI^+) cells.

[6] = test system: experimental auto-immune encephalomyelitis in C57BL/6 mice; format: in vivo, mouse; details: 43 days
[7] = test system: CNS inflammatory and demyelinating lesions; assay: Histopathology of CNS in EAE mice; format: in vivo, mouse; details: haemotoxylin/eosin, Luxol fast blue, Bielshowsky silver staining
Excerpt: At the completion of the experiments, mice were anesthetized, their blood collected (for subsequent antibody determination) and brain and spinal cord carefully removed, prior to immersion in a 4% paraformaldehyde, 0.1 M phosphate buffer solution. Segments of brain, cerebellum and spinal cord were embedded in paraffin. Sections were stained with haemotoxylin-eosin, Luxol fast blue and Bielshowsky for evidence of inflammation, demyelination and axonal damage, respectively (McQualter 2001 J Exp Med. October 1; 194(7), 873-82). Semiquantitative histological evaluation for inflammation and demyelination was performed and scored in a blind fashion as follows: 0, no inflammation; 1, cellular infiltrate only in the perivascular areas and meninges; 2, mild cellular infiltrate in parenchyma; 3, moderate cellular infiltrate in parenchyma; and 4, severe cellular infiltrate in parenchyma (Bettadapura J Neurochem 70, 199, 1593-1599 8; Okuda J Neuroimmunol 131, 2002, 115-125).
The influence of kalata B1 vaccination on the formation of CNS inflammatory and demyelinating lesions was examined by histological studies of fixed tissue using haemotoxylin/eosin, Luxol fast blue (LFB) and Bielshowsky silver staining.

anti-MOG antibodies = assay: MOG-specific antibody ELISA of sera; format: in vivo, mouse; details: Day 43, reactivity to MOG35-55
Description: Antibody activity to rMOG and MOG35-55 in mouse sera was measured by ELISA, as previously described Ichikawa Cell Immunol 191, 1999, 97-104). Briefly, serum was collected at the end of the experiments and tested by ELISA with rMOG and MOG35-55 peptide-coated plates (Maxisorp, Nunc).
Whether the suppression of EAE in mice vaccinated with kalata B1 was associated with a decrease in the production of specific antibodies to MOG was examined. Accordingly, sera from kalata B1 and PBS treated mice were collected at the completion of the experiment (Day 43) and tested for their reactivity to MOG35-55.

[8] = test system: spleen cell cultures of EAE mice; assay: Cytokine bead array of spleen cell supernatants; format: cell-based, mouse
Description: For cytokine assays, 2 ml of cells (5×10^6 cells/ml) from spleens isolated 32-46 days after immunization were added to 24 well plates either alone or with MOG35-55 (10 μg/ml) or with anti-CD3ε and anti-CD 28 (20 μg/ml each). Supernatants were collected at 48 and 72 h. Quantitation of mouse cytokine content incorporating Th1, Th2 cytokines and chemokines (IFNγ, IL-2, IL-3, IL-4, IL-5, IL-6, IL-9, IL-10, IL-12p70, IL-13, GM-CSF, KC, MCP-1, MIG, and TNF) were simultaneously determined using a multiplexed bead assay (Cytometric Bead Array Flex sets [CBA]) according to the manufacturer's recommended protocol (Becton Dickinson). Acquisition of 4500 events was performed using a FACScanto II flow cytometer (Becton Dickinson, San Jose, USA) and Diva software and data analysed and fitted to a 4-parameter logistic equation using the FCAP array software (Soft Flow, Pécs, Hungary). Minimum detection levels of each cytokine were: IFNγ, 5.2 μg/ml; IL-2, 1.5 μg/ml; IL-3, 4.2 μg/ml; IL-4, 0.8 μg/ml; IL-5, 4.8 μg/ml; IL-6, 6.5 μg/ml; IL-9, 10.5 μg/ml; IL-10, 16.4 μg/ml; IL-12p70, 9.2 μg/ml; IL-13, 7.3 μg/ml; GM-CSF, 9.9 μg/ml; KC, 16.2 μg/ml; MCP-1, 29 μg/ml; MIG, 11.4 μg/ml and TNF, 17.1 μg/ml.
Accordingly, conditioned media generated from in vitro stimulated and non-stimulated spleen cell cultures were assessed in cytokine bead array assays. A total of 15 cytokines were analysed simultaneously, including, IL2, IL3, IL4, IL5, IL6, IL9, IL10, IL12p70, IL13, IFNγ, GM-CSF, KC, MCP1, MIG and TNFα.

[9] = test system: splenocytes of vaccinated EAE mice; details: MOG35-55
Description: Spleens were taken from mice sacrificed 32-46 days after MOG35-55 immunization. Cells were gently dispersed through a 70 μm nylon mesh (BD) into a single cell suspension, washed and cultured at 2.5×10^6 cells/ml in complete RPMI (RPMI 1640 containing 10% heat-inactivated fetal calf serum (Sigma), 2 mM L-glutamine, 100 U/ml of penicillin, 100 μg/ml of streptomycin, 50 μm 2-mercaptoethanol and 1 mm sodium pyruvate. Two hundred microliters of cell suspensions were then added to 96 well microtitre plates either alone, with MOG35-55 (20 μg/ml) or anti-CD3ε and anti-CD 28 (20 μg/ml each) and incubated for 66 h at 37° C. with 5% CO2. Ten microliters of [^3H]thymidine (1 μCi/well; Amersham, Australia; diluted 1/10 in media) were added to each well for the last 18 h. Plates were harvested onto glass fibre filters and a drop of Microscint Scintillant (Perkin Elmer) was added to each well. Counts were read using a Top Count NXT Scintillation Counter (Perkin Elmer). Presented values are the mean of three wells.

H. contortus nematodes = details: Huang et al., 2010; read-out: IC50 nematocidal activity; cited from earlier work
[10] = test system: T. colibriformus nematodes; details: Huang et al., 2010; read-out: IC50 nematocidal activity; cited from earlier work
[11] = test system: human T-lymphoblast cells; details: read-out: IC50 cytotoxicity; Daly et al., 2004; cited from earlier work
[12] = Barry 2003; Henriques 2011; cited from earlier work
[13] = non-stimulated spleen cell supernatants

For `CC(C)C[C@@H]1NC(=O)CNC(=O)[C@H](CC(N)=O)NC(=O)[C@H](CCCNC(=N)N)NC(=O)[C@H]([C@@H](C)O)NC(=O)[C@@H]2CSSC[C@@H]3NC(=O)[C@H]([C@@H](C)O)NC(=O)CNC(=O)CNC(=O)[C@H](C(C)C)NC(=O)[C@@H]4CSSC[C@H](NC(=O)[C@H]([C@@H](C)O)NC(=O)[C@H](CSSC[C@H](NC(=O)[C@H](C(C)C)NC(=O)[C@@H]5CCCN5C1=O)C(=O)NCC(=O)N[C@@H](CCC(=O)O)C(=O)N[C@@H]([C@@H](C)O)C(=O)N4)NC(=O)CNC(=O)[C@@H]1CCCN1C(=O)[C@H]([C@@H](C)O)NC(=O)[C@H](CC(N)=O)NC3=O)C(=O)N[C@@H](CO)C(=O)N[C@@H](Cc1c[nH]c3ccccc13)C(=O)N1CCC[C@H]1C(=O)N[C@@H](C(C)C)C(=O)N2` [Kalata B1], the “cell division / proliferation of activated PBMC (in words)” value [1] was “dose-dependent decrease of the cell division capacity”, the “Relative activity in other assays (fold difference to kB1): nematocidal” value (nematodes) was 1.0 fold difference to kB1 and the “Relative activity in other assays (fold difference to kB1): hemolytic” value [2] was 0.7 fold difference to kB1. The “Relative activity in other assays (fold difference to kB1): insecticidal” value [3] was 1.0 fold difference to kB1, the “concentrations cytotoxic to the cells” value [4] was “higher than 14 μM” and the induction of necrosis ([5]; kalata B1 14 μM vs untreated control, Triton-X 100, melittin high concentrations) was “slightly increased”. For the same molecule, the induction of apoptosis ([5]; kalata B1 1.8-14 μM, CPT 30 μg/mL, melittin up to 1.6 μM) was “no significant influence on the induction of apoptosis”, the mean cumulative score ([6]; p<0.01 vs PBS control group) was 42.2±13.0 and the “incidence and severity of EAE” value ([6]; three sc injections in IFA at weekly intervals before EAE induction) was “reduction in the incidence and severity of EAE”. For the same molecule, the “histological lesions of EAE” value [7] was “some improvement in disease severity as judged by decrease in histological lesions of EAE”, the “anti-MOG antibodies in sera” value (anti-MOG antibodies) was “anti-MOG antibodies were detected in all sera regardless of the vaccination regimen” and the “cytokine content in stimulated supernatants” value ([8]; MOG35-55 or CD3/38-stimulated, cyclotide vs control groups, data not shown) was “no marked changes in cytokine content”. For the same molecule, the “level of TNFα” value [8, 13] was “significantly reduced levels”, the “level of chemokine MIG” value [8, 13] was “significantly reduced levels” and the “stimulation indices (SI), splenocyte proliferation to MOG” value [9] was 2.9±0.4. For the same molecule, the IC50 (H. contortus nematodes) was 2.7 µM, the IC50 [10] was 4.5 µM and the IC50 [11] was 3.5 µM. The “concentrations causing hemolysis and membrane disruption” value [12] was > 50 µM.
